Test system: MDA-MB231 cells
Assay: Cytotoxic effect (MTT analysis)
Conditions: 24 hours, sulfisoxazole 100 μM, ambrisentan 1, 10, 100 μM, macitentan 100, 1000 nM, bosentan 10, 50 μM, FIG. 1
Description: MCF10A cells were cultured in Mammary epithelial cell growth medium (MEGM, Lonza) added with 5% fetal bovine serum, 1% antibiotics, 52 μg/ml bovine pituitary extract, 0.5 μg/ml hydrocortisone, 10 ng/ml EGF, and 5 μg/ml insulin. MDA-MB231 and MCF7 cells were cultured in Dulbecco's modified Eagle's medium (DMEM, Hyclone) added with 10% fetal bovine serum and 1% antibiotics.
MDA-MB231 cells were seeded at 1×10^5/well in a 24-well plate, and then cultured for 24 hours to allow time for cell stabilization. After culturing for 24 hours, the cells were treated with 100 μM of sulfisoxazole, 1, 10, and 100 μM of ambrisentan, 100 and 1000 nM of macitentan, and 10 and 50 μM of bosentan and cultured for 24 hours. Then, after treatment with MTT tetrazolium reagent, the cells were cultured for 4 hours. After 4 hours, reduced MTT formazan (3-(4,5-dimethylthiazol-2-yl)-2,5 diphenyl-tetrazolium bromide) was measured at 595 nm absorbance to confirm cell proliferation effects.

Row | Structure (SMILES) | cytotoxicity (MTT, absorbance 595 nm)
1 | COc1ccccc1Oc1c(NS(=O)(=O)c2ccc(C(C)(C)C)cc2)nc(-c2ncccn2)nc1OCCO [bosentan] | no cytotoxicity
2 | Cc1noc(NS(=O)(=O)c2ccc(N)cc2)c1C [sulfisoxazole] | no cytotoxicity

— patent US20220317132A1, “USE OF ENDOTHELIN RECEPTOR INHIBITOR FOR INHIBITING EXOSOME SECRETION OR INHIBITING PD-L1 EXPRESSION” (KYUNGPOOK NATIONAL UNIVERSITY INDUSTRY-ACADEMIC COOPERATION …, priority 2019, published 2022)
